Assay results taken from patent US20240116913A1, “A CRYSTALLINE FORM OF (4-METHYL-2-[1,2,3]TRIAZOL-2-YL-PHENYL)-[(R)-3-(3-[1,2,3]TRIAZOL-2-YL-BENZYL)-MORPHOLIN-4-YL]-METHANONE” (Idorsia Pharmaceuticals Ltd, priority 2021, published 2024).

Experiments:
[1] = Moisture sorption at 25° C. (dynamic vapor sorption, DVS); type: physicochemical; details: for Moisture picked up (mass change): range 0 to 95% RH at 25° C.
Description: Moisture sorption isotherm was collected on a multi sample instrument SPS-100n (Projekt Messtechnik, Ulm, Germany) operated in stepping mode at 25° C. The sample was allowed to equilibrate at 40% RH before starting a pre-defined humidity program 40-0-95-0-95-40% RH, steps of 5% RH and with a maximal equilibration time of 24 hours per step were applied. About 20 to 30 mg of each sample was used. The hygroscopic classification as disclosed herein is done according to the European Pharmacopeia Technical Guide (1999, page 86), that is, a material is classified as “not hygroscopic or “non-hygroscopic” when the increase in mass, as measured by the DVS method disclosed herein, is less than 0.2%; a material is classified as slightly hygroscopic, when the increase in mass is less than 2% and equal to or greater than 0.2% mass/mass; finally, a material is classified as hygroscopic, when the increase in mass is less than 15% and equal to or greater than 2% mass/mass. The mass change between 40% relative humidity and 80% relative humidity in the first adsorption scan was considered. Data shown are from the first upwards cycle.

[2] = Bulk density and tapped density (Densi-tap tapping device); type: physicochemical; details: for Tapped density: after 3750 tappings; for Hausner ratio (HR) (ratio between tapped and bulk density): calculated from measured tapped and bulk densities; for Type of powder flow (flowability class from HR): classified from Hausner ratio; for Bulk density: powder without any processing, 10 mL glass cylinder
Description: Bulk and tapped density were measured on a Densi-tap tapping device from Matec using a 10 mL glass cylinder and using powder without any processing. For tapped density the value is reported after 3750 tappings.

[3] = listed as crystalline form 1 of ACT-539313

SMILES | Hygroscopicity compared between solid forms ([1]; cf. FIGS. 4 and 5, Tables 1 and 3) | Moisture picked up (mass change) [1] | Tapped density [2] | Hausner ratio (HR) (ratio between tapped and bulk density) [2, 3] | Type of powder flow (flowability class from HR) [2, 3] | Bulk density [2] | Hygroscopic classification according to Ph. Eur. ([1]; DVS at 25° C., mass change between 40% and 80% RH, first adsorption scan) | Tapped density ([2]; listed as amorphous ACT-539313) | Hausner ratio (HR) (ratio between tapped and bulk density) ([2]; listed as amorphous material) | Type of powder flow (flowability class from HR) ([2]; listed as amorphous material) | Bulk density ([2]; listed as amorphous ACT-539313)
Cc1ccc(C(=O)N2CCOC[C@H]2Cc2cccc(-n3nccn3)c2)c(-n2nccn2)c1 [ACT-539313 in crystalline form 1, (4-Methyl-2-[1,2,3]triazol-2-yl-phenyl)-[(R)-3-(3-[1,2,3]triazol-2-yl-benzyl)-morpholin-4-yl]-methanone] | less hygroscopic than the amorphous ACT-539313 | Material picks up about 0.1% | 0.46 g/mL | 1.47 | very poor (“very poor” (HR from 1.46 to 1.59)) | 0.31 g/mL | – | – | – | – | –
Cc1ccc(C(=O)N2CCOC[C@H]2Cc2cccc(-n3nccn3)c2)c(-n2nccn2)c1 [ACT-539313 in amorphous state, (4-Methyl-2-[1,2,3]triazol-2-yl-phenyl)-[(R)-3-(3-[1,2,3]triazol-2-yl-benzyl)-morpholin-4-yl]-methanone] | – | ~2.6% of moisture in the range 0 | – | – | – | – | slightly hygroscopic according to (classified as slightly hygroscopic, when the increase in mass is less than 2% and equal to or greater than 0.2% mass/mass) | 0.13 g/mL | 2.26 | very, very poor (“very, very poor” (HR>1.60)) | 0.06 g/mL
